Test results from PMC4806491, “The milk-derived fusion peptide, ACFP, suppresses the growth of primary human ovarian cancer cells by regulating apoptotic gene expression and signaling pathways” (BMC Cancer, 2016).
Read-outs that look alike come from different tables or passages of the source. Positions of bridges follow the written chain, without caps; N, C: chain ends. Residues, ends and D or L forms follow the SMILES beside them.

Key:
[1] = solubility in water and octanol; format: physicochemical
[2] = test system: primary ovarian cancer cells; details: 48 h; for GTF2IP1 Ratio (ACFP/control): NM-002970; for IGFBP5 Ratio (ACFP/control): NM-003488; for MYLK Ratio (ACFP/control): NM-004638; for NKX3-1 Ratio (ACFP/control): NM-004824; for PLA2G5 Ratio (ACFP/control): NM-005322; for POLH Ratio (ACFP/control): NM-005429; for PSMA1 Ratio (ACFP/control): NM-005682; for STAT5B Ratio (ACFP/control): NM-006777; for STAT6 Ratio (ACFP/control): NM-006778; for UPP1 Ratio (ACFP/control): NM-007378; for TNFSF18 Ratio (ACFP/control): NM-008995; for MAP4K4 Ratio (ACFP/control): NM-009448; for BTF/BCLAF1 Ratio (ACFP/control): NM-009774; for TMEFF1 Ratio (ACFP/control): NM-016522; for RAB18 Ratio (ACFP/control): NM-022931; for TCF/LEF1 Ratio (ACFP/control): NM-051176; for PINX1 Ratio (ACFP/control): NM-054984; for RINT-1 Ratio (ACFP/control): NM-060561; for C17orf37 Ratio (ACFP/control): NM-084299; for ZNF512 Ratio (ACFP/control): NM-084450; for AKT1 Ratio (ACFP/control): NM_000207; for ARHE Ratio (ACFP/control): NM_000390; for BAG1 Ratio (ACFP/control): NM_000573; for BAX Ratio (ACFP/control): NM_000581; for BCL-xl Ratio (ACFP/control): NM_000598; for C1QG Ratio (ACFP/control): NM_000714; for CASP3 Ratio (ACFP/control): NM_000836; for CCNB1 Ratio (ACFP/control): NM_000891, cyclinB1; for CDC25C Ratio (ACFP/control): NM_000995; for CDKN1A Ratio (ACFP/control): NM_001026; for CDKN1A/p21 Ratio (ACFP/control): NM_001026, second entry; for CKS2 Ratio (ACFP/control): NM_001164; for DVL1 Ratio (ACFP/control): NM_001855; for GRK4 Ratio (ACFP/control): NM_002868; for GRK5 Ratio (ACFP/control): NM_002869; for GRK6 Ratio (ACFP/control): NM_002870; for GSTM4 Ratio (ACFP/control): NM_002948; for GSTM5 Ratio (ACFP/control): NM_002949; for IRF7 Ratio (ACFP/control): NM_003665; for ITGA5 Ratio (ACFP/control): NM_003678; for PKIA Ratio (ACFP/control): NM_005569; for MAPK3/ERK1 Ratio (ACFP/control): NM_005595; for MAPK8/JNK1 Ratio (ACFP/control): NM_005599; for MAPK13/p38 delta Ratio (ACFP/control): NM_005603; for PSMB8 Ratio (ACFP/control): NM_005696; for ZNF12 Ratio (ACFP/control): NM_007559; for BAT5 Ratio (ACFP/control): NM_007920; for PABPN1 Ratio (ACFP/control): NM_008106; for TNFRSF10B Ratio (ACFP/control): NM_008795; for STK17B Ratio (ACFP/control): NM_009262; for TRAF4 Ratio (ACFP/control): NM_009618; for USP34 Ratio (ACFP/control): NM_009736; for GOLGA5 Ratio (ACFP/control): NM_009950; for SUI1 Ratio (ACFP/control): NM_010209; for SPINT2 Ratio (ACFP/control): NM_010653; for PIK3R5 Ratio (ACFP/control): NM_023533; for CARD10 Ratio (ACFP/control): NM_029775; for FLJ39616 Ratio (ACFP/control): NM_051275; for GNG12 Ratio (ACFP/control): NM_055970; for BCORL1 Ratio (ACFP/control): NM_063035; for CARD14 Ratio (ACFP/control): NM_079092; for BCL2L14 Ratio (ACFP/control): NM_079370; for FLJ13848 Ratio (ACFP/control): NM_079829; for SNARK Ratio (ACFP/control): NM_081788; for LOC441241 Ratio (ACFP/control): NM_441241
Experimental: We utilized cDNA microarrays to observe the effect of ACFP on gene expression in primary ovarian cancer cells. Cells were treated with 0 (the vehicle group, as control), 5 × 10^6 g/L and 5 × 10^3 g/L ACFP, respectively, and cultured for 48 h at 37 °C in 5 % CO2. Cells were later digested and collected for total RNA extraction using Trizol. The RNA concentrations and purities were detected with a spectrophotometer. The experiments were performed in duplicate on a single total RNA preparation from the cells. Signal values were presented as the mean value of two replicate experiments. RNA samples were used to generate human whole genome expression profiling microarray (Yeli Bioscience Co., Ltd.; Shanghai, China). RNA was subsequently converted into digoxigenin-labeled complementary RNA and hybridized to a human genome microarray system (Human OneArray Microarray, from Phalanx Biotech Group, Taiwan). The chips were scanned by a GeeDom® LuxScan 10 K microarray scanner. LuxScan3.0 software was used to extract probe fluorescence signals and analyze images. Finally, the original data were processed by normalizing.

## CC[C@H](C)[C@@H]1NC(=O)[C@H](CO)NC(=O)[C@@H]2CCCN2C(=O)[C@H](C)NC(=O)CNC(=O)[C@H](CC(C)C)NC(=O)[C@H](CCCCN)NC(=O)[C@H](CCCCN)NC(=O)[C@H](CCSC)NC(=O)[C@H](CCCNC(=N)N)NC(=O)[C@H](Cc2c[nH]c3ccccc23)NC(=O)[C@H](CCC(N)=O)NC(=O)[C@H](Cc2c[nH]c3ccccc23)NC(=O)[C@H](CCCNC(=N)N)NC(=O)[C@H](CCCNC(=N)N)NC(=O)[C@@H](NC(=O)[C@H](CCCCN)NC(=O)[C@@H](N)Cc2ccccc2)CSSC[C@@H](C(=O)N[C@H](C(=O)N[C@@H](CCCNC(=N)N)C(=O)N[C@@H](CCCNC(=N)N)C(=O)N[C@@H](C)C(=O)N[C@@H](Cc2ccccc2)C(=O)NCC(=O)NCC(=O)NCC(=O)NCC(=O)N[C@@H](CO)C(=O)N2CCC[C@H]2C(=O)NCC(=O)N2CCC[C@H]2C(=O)N[C@H](C(=O)N2CCC[C@H]2C(=O)N[C@@H](CC(N)=O)C(=O)O)[C@@H](C)CC)C(C)C)NC(=O)[C@H]([C@@H](C)O)NC1=O [ACFP] (H-FKCRRWQWRMKKLGAPSITCVRRAFGGGGSPGPIPN-OH; disulfide 3-20; N-terminus and C-terminus assumed)
[1]
  solubility in fat (octanol): slightly soluble
  solubility in water: easily dissolve
[2]; High dose 5×10^-3 g/L
  GTF2IP1 Ratio (ACFP/control): 0.24
  IGFBP5 Ratio (ACFP/control): 0.23
  MYLK Ratio (ACFP/control): 0.23
  NKX3-1 Ratio (ACFP/control): 3.11
  PLA2G5 Ratio (ACFP/control): 0.46
  POLH Ratio (ACFP/control): 0.12
  PSMA1 Ratio (ACFP/control): 0.49
  STAT5B Ratio (ACFP/control): 2.03
  STAT6 Ratio (ACFP/control): 10.8
  UPP1 Ratio (ACFP/control): 0.42
  TNFSF18 Ratio (ACFP/control): 0.41
  MAP4K4 Ratio (ACFP/control): 0.41
  BTF/BCLAF1 Ratio (ACFP/control): 2.79
  TMEFF1 Ratio (ACFP/control): 7.91
  RAB18 Ratio (ACFP/control): 0.25
  TCF/LEF1 Ratio (ACFP/control): 0.35
  PINX1 Ratio (ACFP/control): 0.47
  RINT-1 Ratio (ACFP/control): 0.17
  C17orf37 Ratio (ACFP/control): 0.38
  ZNF512 Ratio (ACFP/control): 0.47
  AKT1 Ratio (ACFP/control): 0.27
  ARHE Ratio (ACFP/control): 3.39
  BAG1 Ratio (ACFP/control): 0.33
  BAX Ratio (ACFP/control): 6.35
  BCL-xl Ratio (ACFP/control): 0.19
  C1QG Ratio (ACFP/control): 2.68
  CASP3 Ratio (ACFP/control): 5.34
  CCNB1 Ratio (ACFP/control): 0.21
  CDC25C Ratio (ACFP/control): 0.32
  CDKN1A Ratio (ACFP/control): 6.58
  CDKN1A/p21 Ratio (ACFP/control): 3.58
  CKS2 Ratio (ACFP/control): 8.95
  DVL1 Ratio (ACFP/control): 2.46
  GRK4 Ratio (ACFP/control): 0.37
  GRK5 Ratio (ACFP/control): 0.47
  GRK6 Ratio (ACFP/control): 0.26
  GSTM4 Ratio (ACFP/control): 2.72
  GSTM5 Ratio (ACFP/control): 4.84
  IRF7 Ratio (ACFP/control): 4.50
  ITGA5 Ratio (ACFP/control): 0.43
  PKIA Ratio (ACFP/control): 2.74
  MAPK3/ERK1 Ratio (ACFP/control): 0.35
  MAPK8/JNK1 Ratio (ACFP/control): 2.74
  MAPK13/p38 delta Ratio (ACFP/control): 3.04
  PSMB8 Ratio (ACFP/control): 3.24
  ZNF12 Ratio (ACFP/control): 3.66
  BAT5 Ratio (ACFP/control): 7.48
  PABPN1 Ratio (ACFP/control): 9.8
  TNFRSF10B Ratio (ACFP/control): 4.85
  STK17B Ratio (ACFP/control): 2.97
  TRAF4 Ratio (ACFP/control): 3.62
  USP34 Ratio (ACFP/control): 4.52
  GOLGA5 Ratio (ACFP/control): 2.95
  SUI1 Ratio (ACFP/control): 9.85
  SPINT2 Ratio (ACFP/control): 10.25
  PIK3R5 Ratio (ACFP/control): 0.44
  CARD10 Ratio (ACFP/control): 4.32
  FLJ39616 Ratio (ACFP/control): 2.53
  GNG12 Ratio (ACFP/control): 8.30
  BCORL1 Ratio (ACFP/control): 0.25
  CARD14 Ratio (ACFP/control): 3.06
  BCL2L14 Ratio (ACFP/control): 2.57
  FLJ13848 Ratio (ACFP/control): 9.45
  SNARK Ratio (ACFP/control): 3.11
  LOC441241 Ratio (ACFP/control): 5.22
[2]; High dose 5×10^-3 g/L, NM_000943, first entry
  TNFRSF8 Ratio (ACFP/control): 3.22
[2]; High dose 5×10^-3 g/L, NM_000943, second entry
  TNFRSF8 Ratio (ACFP/control): 3.22
[2]; High dose 5×10^-3 g/L, NM_007132, first entry
  TNFRSF1A Ratio (ACFP/control): 2.15
[2]; High dose 5×10^-3 g/L, NM_007132, second entry
  TNFRSF1A Ratio (ACFP/control): 2.08
[2]; High dose 5×10^-3 g/L, NM_114904, first entry
  C1QTNF6 Ratio (ACFP/control): 6.26
[2]; High dose 5×10^-3 g/L, NM_114904, second entry
  C1QTNF6 Ratio (ACFP/control): 6.26
[2]; Low dose 5×10^-6 g/L
  GTF2IP1 Ratio (ACFP/control): 0.47
  IGFBP5 Ratio (ACFP/control): 0.45
  MYLK Ratio (ACFP/control): 0.33
  NKX3-1 Ratio (ACFP/control): 2.8
  PLA2G5 Ratio (ACFP/control): 0.36
  POLH Ratio (ACFP/control): 0.33
  PSMA1 Ratio (ACFP/control): 0.39
  STAT5B Ratio (ACFP/control): 3.24
  STAT6 Ratio (ACFP/control): 2.06
  UPP1 Ratio (ACFP/control): 0.48
  TNFSF18 Ratio (ACFP/control): 0.49
  MAP4K4 Ratio (ACFP/control): 0.36
  BTF/BCLAF1 Ratio (ACFP/control): 3.25
  TMEFF1 Ratio (ACFP/control): 3.33
  RAB18 Ratio (ACFP/control): 0.30
  TCF/LEF1 Ratio (ACFP/control): 0.36
  PINX1 Ratio (ACFP/control): 0.45
  RINT-1 Ratio (ACFP/control): 0.32
  C17orf37 Ratio (ACFP/control): 0.39
  ZNF512 Ratio (ACFP/control): 0.31
  AKT1 Ratio (ACFP/control): 0.29
  ARHE Ratio (ACFP/control): 2.99
  BAG1 Ratio (ACFP/control): 0.48
  BAX Ratio (ACFP/control): 3.73
  BCL-xl Ratio (ACFP/control): 0.28
  C1QG Ratio (ACFP/control): 2.02
  CASP3 Ratio (ACFP/control): 3.72
  CCNB1 Ratio (ACFP/control): 0.30
  CDC25C Ratio (ACFP/control): 0.29
  CDKN1A Ratio (ACFP/control): 3.24
  CDKN1A/p21 Ratio (ACFP/control): 3.24
  CKS2 Ratio (ACFP/control): 3.67
  DVL1 Ratio (ACFP/control): 3.58
  GRK4 Ratio (ACFP/control): 0.42
  GRK5 Ratio (ACFP/control): 0.47
  GRK6 Ratio (ACFP/control): 0.49
  GSTM4 Ratio (ACFP/control): 2.25
  GSTM5 Ratio (ACFP/control): 3.55
  IRF7 Ratio (ACFP/control): 3.13
  ITGA5 Ratio (ACFP/control): 0.36
  PKIA Ratio (ACFP/control): 2.52
  MAPK3/ERK1 Ratio (ACFP/control): 0.36
  MAPK8/JNK1 Ratio (ACFP/control): 2.04
  MAPK13/p38 delta Ratio (ACFP/control): 2.91
  PSMB8 Ratio (ACFP/control): 2.97
  ZNF12 Ratio (ACFP/control): 2.07
  BAT5 Ratio (ACFP/control): 3.66
  PABPN1 Ratio (ACFP/control): 3.71
  TNFRSF10B Ratio (ACFP/control): 2.43
  STK17B Ratio (ACFP/control): 2.01
  TRAF4 Ratio (ACFP/control): 3.34
  USP34 Ratio (ACFP/control): 3.49
  GOLGA5 Ratio (ACFP/control): 2.46
  SUI1 Ratio (ACFP/control): 2.89
  SPINT2 Ratio (ACFP/control): 3.58
  PIK3R5 Ratio (ACFP/control): 0.39
  CARD10 Ratio (ACFP/control): 2.43
  FLJ39616 Ratio (ACFP/control): 3.34
  GNG12 Ratio (ACFP/control): 3.49
  BCORL1 Ratio (ACFP/control): 0.35
  CARD14 Ratio (ACFP/control): 2.13
  BCL2L14 Ratio (ACFP/control): 2.44
  FLJ13848 Ratio (ACFP/control): 3.28
  SNARK Ratio (ACFP/control): 3.08
  LOC441241 Ratio (ACFP/control): 3.48
[2]; Low dose 5×10^-6 g/L, NM_000943, first entry
  TNFRSF8 Ratio (ACFP/control): 2.05
[2]; Low dose 5×10^-6 g/L, NM_000943, second entry
  TNFRSF8 Ratio (ACFP/control): 2.02
[2]; Low dose 5×10^-6 g/L, NM_007132, first entry
  TNFRSF1A Ratio (ACFP/control): 3.50
[2]; Low dose 5×10^-6 g/L, NM_007132, second entry
  TNFRSF1A Ratio (ACFP/control): 3.50
[2]; Low dose 5×10^-6 g/L, NM_114904, first entry
  C1QTNF6 Ratio (ACFP/control): 3.57
[2]; Low dose 5×10^-6 g/L, NM_114904, second entry
  C1QTNF6 Ratio (ACFP/control): 3.43
